Data: ChEMBL document CHEMBL6092158, “Green synthesis of neuroprotective spirocyclic chalcone derivatives and their role in protecting against traumatic optic nerve injury” (Eur J Med Chem, 2024)
The source made the active and inactive calls. No cut-off for these calls is given here.

Legend:
R28 [1] = experiment: Cytoprotective activity against glutamate-induced cytotoxicity in rat R28 cells assessed as increase in cell viability at 10 uM incubated for 24 hrs in presence of glutamate by MTT assay; assay type: functional, cell-based
Mus musculus [2] = experiment: Neuroprotective activity against optic nerve crush C57BL/6J mouse model assessed as increase in inner plexiform layer complex at 1 ug/ul administered into vitreous cavity immediately after ONC surgery and measured on day 7 post-surgery by optical coherence examination analysis; assay type: functional, organism-based; details: dose 1.0 µg/microL, route ivt, time 7.0 day
R28 [3] = experiment: Antioxidant activity in rat R28 cells assessed as inhibition of glutamate-induced reactive oxygen species generation by measuring decrease in fluorescence intensity at 5 uM incubated for 24 hrs by DCFH-DA staining based immunofluorescence analysis; assay type: functional, cell-based
R28 [4] = experiment: Inhibition of glutamate-induced apoptosis in rat R28 cells assessed as decrease in number of PI-positive cells at 5 uM incubated for 24 hrs by Hoechst33342/PI staining based fluorescence microscopic analysis; assay type: functional, cell-based
[5] = Acute toxicity in C57BL/6J mouse assessed as kidney weight at 500 mg/kg, ip and measured on day 14; assay type: organism-based; details: in vivo, 336 h, time 14 day
[6] = Acute toxicity in C57BL/6J mouse assessed as animal activity level at 500 mg/kg, ip; assay type: organism-based; details: in vivo
[7] = Antioxidant activity in rat R28 cells assessed as inhibition of glutamate-induced reactive oxygen species generation at 5 uM incubated for 24 hrs by DCFH-DA staining based flow cytometry (reference value: 16.61%); assay type: functional; parameters: scale not given: the % may be the effect or the level left
Cortical neurone [8] = experiment: Cytoprotective activity against oxidative glutamate-induced cytotoxicity in rat primary cortical neuronal cells assessed as increase in cell viability at 1.25 uM incubated for 24 hrs by CCK8 assay; assay type: functional, cell-based
[9] = Inhibition of glutamate-induced apoptosis in rat R28 cells assessed as viable cells incubated for 24 hrs by AnnexinV-FITC/PI staining based flow cytometry (reference value: 28.81%); assay type: functional
[10] = Acute toxicity in C57BL/6J mouse assessed as body weight at 500 mg/kg, ip measured for 14 days; assay type: organism-based; details: in vivo, 336 h, time 14 day
[11] = Acute toxicity in C57BL/6J mouse assessed as heart weight at 500 mg/kg, ip and measured on day 14; assay type: organism-based; details: in vivo, 336 h, time 14 day
[12] = Acute toxicity in C57BL/6J mouse assessed as AST level in serum at 500 mg/kg, ip and measured on day 14; assay type: organism-based; details: in vivo, 336 h, time 14 day
[13] = Acute toxicity in C57BL/6J mouse assessed as retinal damage at 500 mg/kg, ip and measured on day 14 by Hematoxylin-Eosin staining based analysis; assay type: organism-based; details: in vivo, 336 h, time 14 day
[14] = Acute toxicity in C57BL/6J mouse assessed as lungs weight at 500 mg/kg, ip and measured on day 14; assay type: organism-based; details: in vivo, 336 h, time 14 day
[15] = Acute toxicity in C57BL/6J mouse assessed as ALT level in serum at 500 mg/kg, ip and measured on day 14; assay type: organism-based; details: in vivo, 336 h, time 14 day
[16] = Acute toxicity in C57BL/6J mouse assessed as liver weight at 500 mg/kg, ip and measured on day 14; assay type: organism-based; details: in vivo, 336 h, time 14 day
[17] = Acute toxicity in C57BL/6J mouse assessed as lung damage at 500 mg/kg, ip and measured on day 14 by Hematoxylin-Eosin staining based analysis; assay type: organism-based; details: in vivo, 336 h, time 14 day
[18] = Acute toxicity in C57BL/6J mouse assessed as spleen damage at 500 mg/kg, ip and measured on day 14 by Hematoxylin-Eosin staining based analysis; assay type: organism-based; details: in vivo, 336 h, time 14 day
[19] = Inhibition of glutamate-induced apoptosis in rat R28 cells assessed as early apoptotic cells incubated for 24 hrs by AnnexinV-FITC/PI staining based flow cytometry (reference value: 69.04%); assay type: functional; parameters: scale not given: the % may be the effect or the level left
[20] = Acute toxicity in C57BL/6J mouse assessed as liver damage at 500 mg/kg, ip and measured on day 14 by Hematoxylin-Eosin staining based analysis; assay type: organism-based; details: in vivo, 336 h, time 14 day
[21] = Induction of apoptosis in rat R28 cells assessed as viable cells incubated for 24 hrs by AnnexinV-FITC/PI staining based flow cytometry (reference value: 91.34%); assay type: toxicity, cell-based; details: read-out: Activity
Mus musculus [22] = experiment: Neuroprotective activity against optic nerve crush C57BL/6J mouse model assessed as restoration of P1 latency of optic nerve at 1 ug/ul administered into vitreous cavity immediately after ONC surgery and measured on day 7 post-surgery by […] based electrophysiological analysis; assay type: functional, organism-based; details: dose 1.0 µg/microL, route ivt, time 7.0 day
[23] = Effect on reactive oxygen species generation in rat R28 cells at 5 uM incubated for 24 hrs by DCFH-DA staining based flow cytometry (reference value: 0.49%); assay type: toxicity, cell-based; details: r28, 24 h
Mus musculus [24] = experiment: Neuroprotective activity against optic nerve crush C57BL/6J mouse model at 1 ug/ul administered into vitreous cavity immediately after ONC surgery and measured on day 7 post-surgery by optical coherence examination analysis; assay type: functional, organism-based; details: dose 1.0 µg/microL, route ivt, time 7.0 day
R28 [25] = experiment: Cytoprotective activity against oxidative glutamate-induced cytotoxicity in rat R28 cells assessed as increase in cell viability at 1.25 to 2.5 uM incubated for 24 hrs by MTT assay; assay type: functional, cell-based; details: dose 1.25-2.5 µM
[26] = Acute toxicity in C57BL/6J mouse assessed as kidney damage at 500 mg/kg, ip and measured on day 14 by Hematoxylin-Eosin staining based analysis; assay type: organism-based; details: in vivo, 336 h, time 14 day
[27] = Inhibition of glutamate-induced apoptosis in rat R28 cells assessed as late apoptotic cells incubated for 24 hrs by AnnexinV-FITC/PI staining based flow cytometry (reference value: 3.47%); assay type: functional; parameters: scale not given: the % may be the effect or the level left
[28] = Acute toxicity in C57BL/6J mouse assessed as heart damage at 500 mg/kg, ip and measured on day 14 by Hematoxylin-Eosin staining based analysis; assay type: organism-based; details: in vivo, 336 h, time 14 day
[29] = Antioxidant activity assessed as DPPH radical scavenging activity at 20 uM by DPPH assay; assay type: functional
Mus musculus [30] = experiment: Neuroprotective activity against optic nerve crush C57BL/6J mouse model assessed as increase in retinal nerve fibre layer thickness complex at 1 ug/ul administered into vitreous cavity immediately after ONC surgery and measured on day 7 post-surgery by optical coherence examination analysis; assay type: functional, organism-based; details: dose 1.0 µg/microL, route ivt, time 7.0 day
[31] = Acute toxicity in C57BL/6J mouse assessed as spleen weight at 500 mg/kg, ip and measured on day 14; assay type: organism-based; details: in vivo, 336 h, time 14 day
Mus musculus [32] = experiment: Inhibition of glutamate-induced JNK phosphorylation in retinal tissue of optic nerve crush C57BL/6J mouse model at 1 ug/ul administered into vitreous cavity immediately after ONC surgery and measured on day 7 post-surgery by western blot analysis; assay type: functional; details: dose 1.0 µg/microL, route ivt, time 7.0 day
Cortical neurone [33] = experiment: Antioxidant activity in rat primary cortical neuron assessed as inhibition of glutamate-induced reactive oxygen species generation at 5 uM incubated for 24 hrs by DCFH-DA staining based immunofluorescence analysis; assay type: functional, cell-based
[34] = Inhibition of glutamate-induced apoptosis in rat R28 cells assessed as necrotic cells incubated for 24 hrs by AnnexinV-FITC/PI staining based flow cytometry (reference value: 0.68%); assay type: functional; parameters: scale not given: the % may be the effect or the level left
Mus musculus [35] = experiment: Neuroprotective activity against optic nerve crush C57BL/6J mouse model assessed as increase in ganglion cell layer complex at 1 ug/ul administered into vitreous cavity immediately after ONC surgery and measured on day 7 post-surgery by optical coherence examination analysis; assay type: functional, organism-based; details: dose 1.0 µg/microL, route ivt, time 7.0 day
[36] = Cytotoxicity against rat R28 cells assessed as effect on cell viability by MTT assay; assay type: toxicity, cell-based
[37] = Induction of apoptosis in rat R28 cells assessed as late apoptotic cells incubated for 24 hrs by AnnexinV-FITC/PI staining based flow cytometry (reference value: 4.59%); assay type: toxicity, cell-based; details: r28, 24 h
[38] = Antioxidant activity assessed as DPPH radical scavenging activity at 100 uM by DPPH assay; assay type: functional
Mus musculus [39] = experiment: Effect on total JNK level in retinal tissue of optic nerve crush C57BL/6J mouse model at 1 ug/ul administered into vitreous cavity immediately after ONC surgery and measured on day 7 post-surgery by western blot analysis; assay type: functional; details: dose 1.0 µg/microL, route ivt, time 7.0 day
R28 [40] = experiment: Antioxidant activity in rat R28 cells assessed as inhibition of glutamate-induced oxidative stress by measuring decrease in intracellular MDA level; assay type: functional, cell-based
[41] = Induction of apoptosis in rat R28 cells assessed as early apoptotic cells incubated for 24 hrs by AnnexinV-FITC/PI staining based flow cytometry (reference value: 1.53%); assay type: toxicity, cell-based; details: r28, 24 h
Mus musculus [42] = experiment: Neuroprotective activity against optic nerve crush C57BL/6J mouse model assessed as increase in P1-N2 wave amplitude of optic nerve at 1 ug/ul administered into vitreous cavity immediately after ONC surgery and measured on day 7 post-surgery by F-EVP based electrophysiological analysis; assay type: functional, organism-based; details: dose 1.0 µg/microL, route ivt, time 7.0 day
R28 [43] = experiment: Cytoprotective activity against hydrogen peroxide-induced cytotoxicity in rat R28 cells assessed as increase in cell viability at 10 uM preincubated for 24 hrs followed by incubation with H2O2 for 24 hrs by MTT assay; assay type: functional, cell-based
[44] = Induction of apoptosis in rat R28 cells assessed as necrotic cells incubated for 24 hrs by AnnexinV-FITC/PI staining based flow cytometry (reference value: 2.54%); assay type: toxicity, cell-based; details: r28, 24 h

Structure (SMILES): CN1C[C@H](c2ccc(O)c(O)c2)[C@@H](C(=O)c2cc(F)cc(F)c2)[C@]12C(=O)Nc1ccccc12
- Activity (R28 [1]): Active
- Activity (Mus musculus [2]): Active
- Activity (R28 [3]): Active
- inhibition (R28 [4]): Active
- Activity [5]: Non-toxic
- Activity [6]: Non-toxic
- Activity [7]: 4.62%
- Activity (Cortical neurone [8]): Active
- Activity [9]: 89.77%
- Activity [10]: Non-toxic
- Activity [11]: Non-toxic
- Activity [12]: Non-toxic
- Activity [13]: Non-toxic
- Activity [14]: Non-toxic
- Activity [15]: Non-toxic
- Activity [16]: Non-toxic
- Activity [17]: Non-toxic
- Activity [18]: Non-toxic
- Activity [19]: 1.63%
- Activity [20]: Non-toxic
- viability at 24 h [21]: 87.5%
- Activity (Mus musculus [22]): Active
- Activity [23]: 2.05%
- Activity (Mus musculus [24]): Active
- Activity (R28 [25]): Active
- Activity [26]: Non-toxic
- Activity [27]: 6.05%
- Activity [28]: Non-toxic
- Activity [29]: Active
- Activity (Mus musculus [30]): Active
- Activity [31]: Non-toxic
- inhibition (Mus musculus [32]): Active
- Activity (Cortical neurone [33]): Active
- Activity [34]: 2.54%
- Activity (Mus musculus [35]): Active
- Activity [36]: Toxic
- Activity [37]: 8.4%
- inhibition [38]: 95%
- Activity (Mus musculus [39]): inactive
- Activity (R28 [40]): Active
- Activity [41]: 1.94%
- Activity (Mus musculus [42]): Active
- Activity (R28 [43]): Active
- Activity [44]: 2.13%
